Several values for one entry are separate records, joined by “and”; a condition that tells them apart may be missing. Equal entries are not always repeated.
Conditions: Liquid; for mass density: Vibrating tube method; for electrical conductivity: electrochemical impedance spectroscopy

CCCCC[P+](CC)(CC)CC.O=S(=O)([N-]S(=O)(=O)C(F)(F)F)C(F)(F)F
Conditions	electrical conductivity	mass density
323.15 K, 5000 kPa	–	1286.05 kg/m3
323.15 K, 10000 kPa	–	1289.93 kg/m3
323.15 K, 15000 kPa	–	1293.65 kg/m3
323.15 K, 20000 kPa	–	1297.31 kg/m3
323.15 K, 25000 kPa	–	1300.84 kg/m3
323.15 K, 30000 kPa	–	1304.31 kg/m3
323.15 K, 35000 kPa	–	1307.72 kg/m3
323.15 K, 40000 kPa	–	1311.03 kg/m3
323.15 K, 45000 kPa	–	1314.23 kg/m3
323.15 K, 50000 kPa	–	1317.43 kg/m3
328.15 K, 101.33 kPa	0.515 S/m and 0.516 S/m	–
333.15 K, 100 kPa	–	1273.44 kg/m3 [middle of 6 runs]
333.15 K, 101.33 kPa	0.598 S/m and 0.6 S/m	–
333.15 K, 1000 kPa	–	1274.41 kg/m3
333.15 K, 5000 kPa	–	1277.68 kg/m3
333.15 K, 10000 kPa	–	1281.66 kg/m3
333.15 K, 15000 kPa	–	1285.53 kg/m3
333.15 K, 20000 kPa	–	1289.3 kg/m3
333.15 K, 25000 kPa	–	1292.91 kg/m3
333.15 K, 30000 kPa	–	1296.47 kg/m3
333.15 K, 35000 kPa	–	1299.98 kg/m3
333.15 K, 40000 kPa	–	1303.38 kg/m3
333.15 K, 45000 kPa	–	1306.68 kg/m3
333.15 K, 50000 kPa	–	1309.96 kg/m3
338.15 K, 101.33 kPa	0.687 S/m and 0.689 S/m	–
343.15 K, 100 kPa	–	1264.95 kg/m3 [middle of 6 runs]
343.15 K, 101.33 kPa	0.784 S/m and 0.786 S/m	–
343.15 K, 1000 kPa	–	1265.61 kg/m3
343.15 K, 5000 kPa	–	1269.03 kg/m3
343.15 K, 10000 kPa	–	1273.12 kg/m3
343.15 K, 15000 kPa	–	1277.12 kg/m3
343.15 K, 20000 kPa	–	1280.98 kg/m3
343.15 K, 25000 kPa	–	1284.76 kg/m3
343.15 K, 30000 kPa	–	1288.39 kg/m3
343.15 K, 35000 kPa	–	1291.99 kg/m3
343.15 K, 40000 kPa	–	1295.5 kg/m3

Conditions	electrical conductivity [S/m]	viscosity
323.15 K, 5900 kPa, Frequency=0 MHz	0.411	–
323.15 K, 10600 kPa, Falling or rolling sphere viscometry	–	33.85 mPa·s
323.15 K, 10600 kPa, Frequency=0 MHz	0.393	–
323.15 K, 20500 kPa, Falling or rolling sphere viscometry	–	37.97 mPa·s
323.15 K, 30600 kPa, Falling or rolling sphere viscometry	–	42.53 mPa·s
323.15 K, 40300 kPa, Falling or rolling sphere viscometry	–	47.23 mPa·s
323.15 K, 50500 kPa, Falling or rolling sphere viscometry	–	52.72 mPa·s
323.15 K, 60300 kPa, Falling or rolling sphere viscometry	–	58.3 mPa·s
323.15 K, 77000 kPa, Frequency=0 MHz	0.211	–
323.15 K, 80500 kPa, Falling or rolling sphere viscometry	–	71.43 mPa·s
323.15 K, 100200 kPa, Falling or rolling sphere viscometry	–	86.46 mPa·s
323.15 K, 120600 kPa, Falling or rolling sphere viscometry	–	104.7 mPa·s
323.15 K, 126900 kPa, Frequency=0 MHz	0.138	–
323.15 K, 140600 kPa, Falling or rolling sphere viscometry	–	125.7 mPa·s
323.15 K, 160500 kPa, Falling or rolling sphere viscometry	–	149.6 mPa·s
323.15 K, 180500 kPa, Falling or rolling sphere viscometry	–	178.5 mPa·s
323.15 K, 200300 kPa, Falling or rolling sphere viscometry	–	210.1 mPa·s
323.15 K, 201300 kPa, Frequency=0 MHz	0.0751	–
323.15 K, 210900 kPa, Falling or rolling sphere viscometry	–	232.2 mPa·s
323.15 K, 225200 kPa, Frequency=0 MHz	0.0625	–
323.15 K, 250100 kPa, Frequency=0 MHz	0.0517	–
323.16 K, 14400 kPa, Frequency=0 MHz	0.378	–
323.16 K, 20500 kPa, Frequency=0 MHz	0.356	–
323.16 K, 25800 kPa, Frequency=0 MHz	0.338	–
323.16 K, 30200 kPa, Frequency=0 MHz	0.324	–
323.16 K, 40000 kPa, Frequency=0 MHz	0.295	–
323.16 K, 49900 kPa, Frequency=0 MHz	0.269	–
333.15 K, 100 kPa, Concentric cylinders viscometry	–	21.51 mPa·s
333.15 K, 100 kPa, Falling or rolling sphere viscometry	–	21.43 mPa·s [middle of 4 runs]
333.15 K, 700 kPa, Falling or rolling sphere viscometry	–	21.55 mPa·s
333.15 K, 10400 kPa, Falling or rolling sphere viscometry	–	23.8 mPa·s
333.15 K, 10600 kPa, Falling or rolling sphere viscometry	–	24.11 mPa·s
333.15 K, 19700 kPa, Falling or rolling sphere viscometry	–	26.33 mPa·s
333.15 K, 20300 kPa, Falling or rolling sphere viscometry	–	26.81 mPa·s
333.15 K, 30600 kPa, Falling or rolling sphere viscometry	–	29.93 mPa·s and 29.71 mPa·s
333.15 K, 40300 kPa, Falling or rolling sphere viscometry	–	32.65 mPa·s
333.15 K, 40600 kPa, Falling or rolling sphere viscometry	–	33.21 mPa·s
333.15 K, 50400 kPa, Falling or rolling sphere viscometry	–	36.22 mPa·s
333.15 K, 50600 kPa, Falling or rolling sphere viscometry	–	36.73 mPa·s
333.15 K, 60500 kPa, Falling or rolling sphere viscometry	–	40.1 mPa·s
333.15 K, 60600 kPa, Falling or rolling sphere viscometry	–	40.52 mPa·s
333.15 K, 80200 kPa, Falling or rolling sphere viscometry	–	48.82 mPa·s
333.15 K, 99600 kPa, Falling or rolling sphere viscometry	–	58.36 mPa·s
343.15 K, 100 kPa, Concentric cylinders viscometry	–	15.99 mPa·s
343.15 K, 100 kPa, Falling or rolling sphere viscometry	–	15.89 mPa·s and 15.97 mPa·s

Reference: the NIST ThermoML archive (doi:10.1021/acs.jced.8b00011)
